Reference: ChEMBL document CHEMBL1138848, “Tetrahydrobiopterin binding to aromatic amino acid hydroxylases. Ligand recognition and specificity” (J Med Chem, 2004)

Experiments:
[1] = molecular target: T1, Phenylalanine-4-hydroxylase (Homo sapiens, UniProt P00439); experiment: Binding affinity for human phenylalanine hydroxylase
T1 sequence (P00439 whole entry): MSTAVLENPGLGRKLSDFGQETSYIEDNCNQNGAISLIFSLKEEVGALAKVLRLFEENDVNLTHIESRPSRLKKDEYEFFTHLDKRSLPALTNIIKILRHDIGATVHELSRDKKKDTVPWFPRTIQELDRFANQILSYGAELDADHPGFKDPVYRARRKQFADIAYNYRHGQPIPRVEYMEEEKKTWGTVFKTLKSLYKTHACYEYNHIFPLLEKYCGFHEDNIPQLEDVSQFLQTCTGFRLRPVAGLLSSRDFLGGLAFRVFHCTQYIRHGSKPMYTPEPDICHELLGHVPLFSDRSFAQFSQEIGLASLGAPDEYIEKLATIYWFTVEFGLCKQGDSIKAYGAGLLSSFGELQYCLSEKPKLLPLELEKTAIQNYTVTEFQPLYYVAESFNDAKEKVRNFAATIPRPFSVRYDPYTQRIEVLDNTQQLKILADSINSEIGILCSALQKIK

[2] = molecular target: T1, Phenylalanine-4-hydroxylase; experiment: Inhibitory concentration against human phenylalanine hydroxylase

- Ki [1]: 7 µM
- IC50 [2]: 1 µM
Compound: CC(O)C(O)C1CNc2c(nc(N)[nH]c2=O)N1 (configuration not stated)
